Entries after “also recorded” stand apart in the source; their conditions may differ.
Legend:
[1] = tested on: G93A*SOD1 ALS mice; assay: Gastrocnemius muscle mass and muscle mass index; type: in vivo
Procedure: (§1) The study used 12 mice. At 35 d, mice were assigned to treatment groups. The 3 groups in the study were: i) wild-type control mice treated with vehicle (CON-Veh; n=4; 3 female (F) and 1 male (M)); ii) G93A*SOD1 ALS mice treated with vehicle (ALS-Veh; n=4; 3 F and 1 M; and iii) G93A*SOD1 mice treated with 6-Gingerol (ALS-Gin; n=4; 3 F and 1 M). There were no 6-gingerol treated control mice due to cost of the drug.
(§2) 6-gingerol was purchased from Carbosynth Limited, UK. Mice were dosed daily with intraperitoneal (ip) injection of vehicle (0.4% ethanol in PBS) or 6-gingerol at a dose of 10 mg/kg. Treatment began when mice were 35 d old and terminated at 115 d. The volume dosed was adjusted weekly according to changes in body weight.
Specifically, muscle function was assessed using a grip test and a walking or stride test at the termination of the study. After conclusion of the grip function and stride function tests, the mice were then sacrificed and skeletal muscle tissues weighed to determine muscle mass.

[2] = Body weight of G93A*SOD1 ALS mice treated with 6-gingerol; type: in vivo
Procedure: as §1, §2
In this study, mice were evaluated at an average age of 115±5 d (for CON-Veh, ALS-Veh and ALS-Gin), just prior to severe symptom onset. […] There was also a significant reduction in muscle mass in ALS vs. CON mice and a 21% improvement in muscle mass with 6-gingerol (CON-Veh: 0.111±0.015 g; ALS-Veh: 0.075±0.010 g; ALS-Gin 0.090±0.007 g) (FIG. 22, left panel, and Table 4).

[3] = tested on: G93A*SOD1 ALS mice; assay: Stride length test; type: in vivo; conditions: 10 mg/kg ip daily; p=0.13
Procedure: as §1, §2
Briefly, fore- and hind-limb paws are dipped in non-toxic paint and mice walk across a 120 cm table covered in white paper. A dark box with food is placed at the far end to encourage walking across the table. The distance between the fore- and hind-limb ink marks are then measured. Four strides per mouse are quantified and the average stride length determined

[4] = tested on: IRE1α; assay: IRE1α protein level in gastrocnemius muscle by western blot; type: in vivo, mice; conditions: n=5
Procedure: (§3) As described above in Examples 15-18, ALS mice administered 6-gingerol had improved muscle function, improved intracellular calcium clearance, increased SERCA1 protein levels, and decreased CHOP protein levels. To further examine the response of skeletal muscle to 6-gingerol treatment, the levels of ER stress proteins PERK, GRP78/BiP, PDI, and IRE1α were measured in the gastrocnemius muscle of control (CON) and G93A*SOD1 (ALS) mice treated with vehicle (Veh) or 6-gingerol (Gin). Specifically, the protein levels were measured by western blotting. Each group had five mice, i.e., CON (n=5), ALS-Veh (n=5), and ALS-Gin (n=5).

[5] = tested on: G93A*SOD1 ALS mice; assay: Grip function test; type: in vivo; conditions: 10 mg/kg ip daily
Procedure: as §1, §2
Briefly, mice are placed on a metal grid (20 cm wide, 40 cm long; grid placed 40 cm above table) and allowed to grip with fore- and hind-limb paws prior to inverting the grid. Timing begins once the grid is inverted and stops once the mouse can no longer hold the lid.

[6] = tested on: SERCA2; assay: SERCA2 protein level in skeletal muscle by western blot; type: in vivo, mice; conditions: 10 mg/kg ip daily
From the text: (§4) The superficial (SP) and deep (DP) portions of the gastrocnemius muscle (SP GAS and DP GAS, respectively) were used for analysis of Ca^2+ regulatory protein levels by western blot. Anatomically, the gastrocnemius muscle is composed of a lateral and medial head, with a similar mixture of fibres types in the two heads: lateral gastrocnemius is 69% fast glycolytic (FG), 30% fast oxidative and glycolytic (FOG) and 1% slow oxidative (SO) fibres and medial gastrocnemius is 55% FG, 32% FOG and 8% SO. The muscle was divided by superficial vs. deep portions due to their glycolytic (white) vs. oxidative (red) differences, respectively. […] Protein levels were determined using a BCA protein kit (Thermo Scientific). […] For assessment of changes in sarcoplasmic reticulum (SR)/endoplasmic reticulum (ER) Ca^2+ (SERCA) pump, SERCA1 and SERCA2 protein levels were measured. Specifically, 15 μg protein was loaded on 8% gels and analyzed by polyacrylamide gel electrophoresis (PAGE). Levels of parvalbumin (PV) were assessed by loading 2.5 μg protein on 15% gels. […] Level of each respective protein was quantified by chemiluminescence using SuperSignal West Dura Chemiluminescent Substrate (Thermo Scientific) and imaged using a chemiluminescence imaging system (GeneGnome, Syngene). Protein expression levels are expressed as Arbitrary Units (AU). […]

[7] = tested on: PERK; assay: PERK protein level in gastrocnemius muscle by western blot; type: in vivo, mice; conditions: n=5
Procedure: as §3

[8] = tested on: PDI; assay: PDI protein level in gastrocnemius muscle by western blot; type: in vivo, mice; conditions: n=5
Procedure: as §3

[9] = tested on: single muscle fibres from the flexor digitorum brevis (FDB) muscle; assay: Intracellular Ca2+ handling (Fura-2) in single muscle fibres from treated mice; type: in vivo
Procedure: For e-c coupling measurements, fibres were loaded with 1 μM Fura-2 AM in MEM/FBS media for 15 min at room temperature. Fura-2 AM media was then removed by quick centrifugation and fibres were resuspended in fresh MEM/FBS media. Fibres loaded with Fura-2 were placed in a culture/stimulation chamber (Cell MicroControls) containing parallel electrodes on top of a Nikon TiU microscope. Once in the chamber, fibres were continuously perfused with stimulating tyrode (121 mM NaCl, 5 mM KCl, 1.8 mM CaCl2, 0.5 mM MgCl2, 0.4 mM NaH2PO4, 24 mM NaHCO3, and 5.5 mM glucose) pH 7.3 when continuously bubbled with 95% O2/5% CO2 using a Gilson Minipuls 3 peristaltic pump and vacuum pump. Intracellular Ca^2+ levels were assessed by Fura-2 fluorescence ratio (ratio of excitation at 340 and 380 nm; emission at 510 nm) using the IonOptix Hyperswitch system, with the Hyperswitch enabling collection of ratiometric data at a frequency of 250 Hz. Ratios were converted to intracellular free Ca^2+ concentration ([Ca^2+]i). The Fura-2 ratio was calibrated in vivo using the Ca^2+ ionophore A23187 and 10 mM EGTA or 1 mM CaCl2, with Rmin and Rmax determined to be 0.33 and 3.50, respectively. The Kd for Ca^2+ for Fura-2 was 224 nM.
Fura-2 loaded single fibres were stimulated using 350 ms tetani, 0.5 ms pulse duration at 10, 30, 50, 70 and 100, 120 and 150 Hz stimulation frequencies (S48 Square Pulse Stimulator, GRASS Technologies) with one minute rest between frequencies. All single fibre data was collected at room temperature (23 degrees Celsius). […]
After conclusion of the grip function and stride function tests, mice were then sacrificed and single muscle fibres were obtained immediately from the flexor digitorum brevis (FDB) muscle and intracellular Ca^2+ handling assessed using Fura-2 as discussed above in Example 1. Changes in Fura-2 ratio, representing changes in [Ca^2+]i, were measured under resting conditions and in response to electrical stimulation at a range of physiological frequencies (10-150 Hz). […]

[10] = tested on: SERCA1; assay: SERCA1 protein level in gastrocnemius muscle by western blot; type: in vivo, mice; conditions: 10 mg/kg ip daily; levels nearing those in CON muscle; p<0.05 vs. ALS-Veh
From the text: as §4

[11] = tested on: CHOP; assay: CHOP protein level in gastrocnemius muscle by western blot; type: in vivo, mice; conditions: 10 mg/kg ip daily; p<0.05 vs. ALS-Veh
Procedure: Total protein was determined using a BCA protein assay kit (Thermo Scientific). Samples were then solubilized in loading buffer and denatured (5 min at 100° C.). For assessment of changes in protein expression levels, 15-30 μg total protein were loaded on bis-acrylamide gels and analyzed by polyacrylamide gel electrophoresis (PAGE). The amount of protein loaded for each endpoint was determined by separate analysis of the linear range for each antibody. Samples were then transferred to PVDF membrane (Millipore) and blocked with 5% (w/v) non-fat dry milk powder in Tris-buffered saline (pH 8.0) for 1 hr. […] Secondary antibodies were detected using HRP-linked chemiluminescence with SuperSignal West Dura Chemiluminescence Substrate (Thermo Scientific) and imaged using a chemiluminescence imaging system (GeneGnome, Syngene). The signal for the target protein of each sample was quantified and expressed in arbitrary unit (AU) and then values for each ALS and CON mouse expressed as a ratio relative to the first CON mouse (CON1) at each age. […]
The response of skeletal muscle to the ER stress markers was also assessed in response to gingerol treatment, namely by examining the levels of the apoptotic factor CHOP.

[12] = tested on: SR Ca^2+ ATPase (SERCA); assay: Maximum Ca2+ ATPase activity in skeletal muscle homogenates; type: in vivo, mice; conditions: 10 mg/kg 6-gingerol for 10 weeks, p<0.05 vs. ALS-Veh
Procedure: To further examine the effects of 6-gingerol treatment, maximum Ca^2+ ATPase activity was measured in control (CON) and G93A*SOD1 (ALS) mice treated with vehicle (Veh) or 6-gingerol (Gingerol). Specifically, ALS mice received 10 mg/kg 6-gingerol for 10 weeks. The vehicle was administered in parallel to the CON-Veh and ALS-Veh groups of mice.
SR Ca^2+ ATPase (SERCA) activity in skeletal muscle homogenates obtained from the mice was then measured and the average data for all groups is shown in FIG. 31, in which CON (n=5), ALS-Veh (n=5), and ALS-Gin (n=5). In FIG. 31, *=p<0.05 vs. CON-Veh and #=p<0.05 vs. ALS-Veh.

[13] = tested on: GRP78/BiP; assay: GRP78/BiP protein level in gastrocnemius muscle by western blot; type: in vivo, mice; conditions: n=5
Procedure: as §3

For `CCCCC[C@H](O)CC(=O)CCc1ccc(O)c(OC)c1` [6-gingerol], the “Muscle mass index (mg muscle per g body weight), reduction in ALS” value ([1]; ALS-Gin vs. ALS-Veh) was “attenuated”, the “Improvement in muscle mass with 6-gingerol” value ([1]; ALS-Gin vs. ALS-Veh, 10 mg/kg ip daily) was 21% and the Gastrocnemius muscle mass ([1]; ALS-Gin, 10 mg/kg ip daily 35-115 d, CON-Veh 0.111±0.015, ALS-Veh 0.075±0.010) was 0.090 ± 0.007 g. For the same molecule, the “Effect of 6-gingerol on body weight” value ([2]; ALS-Gin vs. ALS-Veh, 10 mg/kg ip daily, 10 mg/kg) was “no significant improvement”, the Body weight ([2]; ALS-Gin: G93A*SOD1 mice, 10 mg/kg ip daily from 35 d, evaluated at 115±5 d, CON-Veh 21.0±2.7, ALS-Veh 17.8±1.4) was 18.2 ± 0.7 g and the “Stride length, difference ALS-Gin vs. ALS-Veh” value [3] was “tendency to improve; also recorded: did not reach statistical significance”. The “IRE1α protein level, ALS-Gin compared to ALS-Veh” value [4] was “decreased”, the “Grip test time, difference ALS-Gin vs. ALS-Veh” value ([5]; p<0.10) was “did not reach significance” and the “Grip function, % of CON-Veh level” value ([5]; ALS-Gin, ALS-Veh 17% of CON-Veh, p=0.08) was 42%. The “SERCA2 protein level, rescue of the decrease with 6-gingerol treatment” value [6] was “minimal rescue”, the “PERK protein level, ALS-Gin compared to ALS-Veh” value [7] was “decreased” and the “PDI protein level, ALS-Gin compared to ALS-Veh” value [8] was “decreased”. The “Effect of 6-gingerol on peak Fura-2 ratio (10 Hz)” value ([9]; ALS-Gin vs. ALS-Veh) was “no attenuation; also recorded: no improvement”, the “Ca^2+ decay time, ALS-Gin vs. ALS-Veh” value ([9]; single FDB fibres, after 50 and 100 Hz tetani, p<0.11) was “tendency for improvement; also recorded: trend for single fibres from ALS-Gin to have a faster decay time” and the “Resting Fura-2 ratio, ALS-Gin vs. ALS-Veh” value ([9]; single FDB fibres, p=0.13) was “lower but did not reach statistical significance; also recorded: tendency for Fura-2 ratio to be lower”. For the same molecule, the “SERCA1 protein level in gastrocnemius muscle, ALS-Gin compared to ALS-Veh” value [10] was “dramatic increase”, the “CHOP protein level in skeletal muscle, ALS-Gin vs. ALS-Veh” value [11] was “significantly attenuated” and the “Ca^2+ ATPase maximum activity (SERCA activity), ALS-Gin relative to ALS-Veh” value [12] was “increased; also recorded: restored Ca^2+ ATPase maximum activity”. The “GRP78/BiP protein level, ALS-Gin compared to ALS-Veh” value [13] was “decreased”.

Reference: patent publication US20150031045A1, “MARKERS FOR DIAGNOSING AMYOTROPHIC LATERAL SCLEROSIS” (University Of Maryland, priority 2012, published 2015)
